In US5350743A, “Bisphosphonic acid derivatives, as bone resorption inhibitors” (Kaken Pharmaceutical Co., Ltd., priority 1991, dated 1994):

Key:
[1] = system: bone resorption activities by PTH; assay type: in vivo, rat (Wister male); details: sc, 10 mg/kg; for Serum calcium value, 1 day value (b) / Serum increased calcium value [(b)-(a)]: 24 h
Excerpt: Now, the test method with respect to the antihypercalcemic activities of the compounds of the present invention by using rats having the thyroid gland and the pala thyroid gland removed, and the results will be described.
Wister male rats of 7 weeks old (150-170 g) were anesthetized with nenbutal, and the thyroid gland and the pala thyroid gland were surgically removed by the method disclosed by Russel R. G. et al, Calcif. Tissue, Res., 183-196 (1970) and by Muehlbauer R. C. et al, Mineral Electrolyte Metab., 5 296-300 (1981). After the operation, the rats were fed on normal food for three days, and on the fourth day, the blood was sampled, and the serum calcium value was measured by an atomic absorption method, whereby rats having the serum calcium value lowered to a level of from 5 to 7 mg/de were selected.
These rats were divided into groups so that each group consisted of five rats. A compound of the present invention was dissolved in a 0.5% CMC aqueous solution or physiological saline and adjusted for administration at a dose of 10 mg/kg. Such a solution was subcutaneously administered at a dose of 2 ml/kg once a day for three days. To a control group, a 0.5% CMC aqueous solution or physiological saline was administered. Next day, 0.2 ml of the blood was sampled, and the serum calcium value was measured in the same manner as described above (this value was designated as 0 day value (a)).
At the same time, an osmotic pump (2001 Model, manufactured by Alza Co.) having parathyroid hormone (PTH) (50 μg/0.2 ml physiological saline) sealed in, was subcutaneously embedded on the back of each rat, and 24 hours later, the blood was sampled from the aorta abdominalis, whereupon the serum calcium value was measured (this value was designated as one day value (b)).
From the obtained results, the serum increased calcium value was calculated by the following formula: [formula]

[2] = toxicity, LD50, subcutaneous injection to mice; details: mouse, in vivo, sc, ddy mice male five weeks old (22-27 g)
Description: LD50 of the compounds of Examples 2, 14, 16, 18, 33, 34 and 58 was at least 100 mg/kg when subcutaneously injected to ddy mice (male) of five weeks old (22-27 g).

Row | SMILES | Serum calcium value, 0 day value (a) [1] [µg/mL] | Serum calcium value, 1 day value (b) [1] [µg/mL] | Serum increased calcium value [(b)-(a)] [1] [µg/mL] | LD50 [2] [mg/kg]
1 | CC1(Cl)CCN(C(P(=O)(O)O)P(=O)(O)O)CC1 [Example 33, 4-Chloro-4-methylpiperidinomethylene bisphosphonic acid] | 52.1 ± 1.73 | 53.3 ± 4.91 | 1.2 ± 3.77 | ≥ 100
2 | CCCCCC=C1CCN(C(P(=O)(O)O)P(=O)(O)O)CC1 [Example 16, 4-hexylidenepiperidinomethylene bisphosphonic acid] | 52.12 ± 1.86 | 53.30 ± 4.89 | 1.18 ± 3.70 | ≥ 100
3 | O=P(O)(O)C(N1CCC2(CC1)CC2(F)F)P(=O)(O)O [Example 4, 1,1-difluoro-6-azaspiro[2.5]octan-6-yl-methylene bisphosphonic acid] | 51.4 ± 7.23 | 128.7 ± 3.31 | 77.3 ± 6.37 | 
4 | O=P(O)(O)C(N1CCCC12CCCCC2)P(=O)(O)O [Example 8, 1-azaspiro[4.5]decan-1-yl-methylene bisphosphonic acid] | 47.1 ± 4.17 | 109.8 ± 2.07 | 62.7 ± 4.27 | 
5 | CC(C)(C)C1(O)CCN(C(P(=O)(O)O)P(=O)(O)O)CC1 [Example 54, 4-t-Butyl-4-hydroxypiperidinomethylene bisphosphonic acid] | 67.3 ± 2.83 | 77.0 ± 3.74 | 9.7 ± 5.32 | 
6 | CCCCCCC1(O)CCN(C(P(=O)(O)O)P(=O)(O)O)CC1 [Example 35, 4-Hexyl-4-hydroxypiperidinomethylene bisphosphonic acid] | 70.8 ± 3.85 | 84.5 ± 6.73 | 13.7 ± 4.13 | 
7 | CCOP(=O)(OCC)C(N1CCC(C(N)=O)(N2CCCCC2)CC1)P(=O)(OCC)OCC [Example 29, 4-Carbamoyl-4-(1-piperidyl)piperidinomethylene bisphosphonic acid ethyl ester] | 66.7 ± 5.91 | 74.8 ± 1.82 | 8.1 ± 4.35 | 
8 | NCCC(O)(P(=O)(O)O)P(=O)(O)O [APD, reference compound] | 60.2 ± 8.32 | 83.6 ± 3.13 | 23.4 ± 6.50 | 
9 | O=P(O)(O)C(N1CCCCC12CCCCC2)P(=O)(O)O [Example 10, 1-azaspiro[5.5]undecan-1-yl-methylene bisphosphonic acid] | 45.5 ± 5.54 | 108.8 ± 6.80 | 63.3 ± 1.91 | 
10 | CCOP(=O)(OCC)C(N1CCC(Cc2ccccc2)CC1)P(=O)(OCC)OCC [Example 27, 4-Benzylpiperidinomethylene bisphosphonic acid ethyl ester] | 66.2 ± 3.13 | 79.5 ± 2.77 | 13.3 ± 1.62 | 
11 | CCOP(=O)(OCC)C(N1CCC(F)(F)CC1)P(=O)(OCC)OCC [Example 31, 4,4-Difluoropiperidinomethylene bisphosphonic acid ethyl ester] | 65.3 ± 3.15 | 73.1 ± 3.96 | 7.8 ± 3.57 | 
12 | O=P(O)(O)C(N1CCCC2(CCCCC2)C1)P(=O)(O)O [Example 12, 2-azaspiro[5.5]undecan-2-yl-methylene bisphosphonic acid] | 53.9 ± 7.82 | 138.9 ± 4.29 | 85.0 ± 6.27 | 
13 | CCC=C1CCN(C(P(=O)(O)O)P(=O)(O)O)CC1 [Example 20] | 63.02 ± 3.75 | 71.73 ± 6.32 | 8.71 ± 2.72 | 
14 | CCCC=C1CCN(C(P(=O)(OCC)OCC)P(=O)(OCC)OCC)CC1 [Example 21, 4-Butylidenepiperidinomethylene bisphosphonic acid ethyl ester] | 60.87 ± 5.61 | 65.92 ± 7.91 | 5.05 ± 3.19 | 
15 | CCOP(=O)(OCC)C(N1CCC(C)(F)CC1)P(=O)(OCC)OCC [Example 37, 4-Fluoro-4-methylpiperidinomethylene bisphosphonic acid ethyl ester] | 53.8 ± 2.10 | 55.7 ± 3.63 | 1.9 ± 3.10 | 
16 | CC1(O)CCN(C(P(=O)(O)O)P(=O)(O)O)CC1 [Example 34, 4-Hydroxy-4-methylpiperidinomethylene bisphosphonic acid] | 61.0 ± 2.82 | 68.3 ± 2.87 | 7.4 ± 2.69 | ≥ 100
17 | CC1(C)CCN(C(P(=O)(O)O)P(=O)(O)O)CC1 [Example 60, 4,4-dimethylpiperidinomethylene bisphosphonic acid] | 46.5 ± 8.69 | 110.4 ± 1.59 | 63.9 ± 2.15 | 
18 | O=P(O)(O)C(N1CCC2(CCCC2)CC1)P(=O)(O)O [Example 6, 8-azaspiro[4.5]decan-8-yl-methylene bisphosphonic acid] | 40.3 ± 3.61 | 90.6 ± 5.30 | 50.3 ± 6.25 | 
19 | CC=C1CCN(C(P(=O)(O)O)P(=O)(O)O)CC1 [Example 18, 4-ethylidenepiperidinomethylene bisphosphonic acid] | 61.34 ± 7.49 | 66.05 ± 6.68 | 4.72 ± 4.05 | ≥ 100
20 | CC1(C)CCCN(C(P(=O)(O)O)P(=O)(O)O)C1 [Example 58, 3,3-dimethylpiperidinomethylene bisphosphonic acid] | 50.8 ± 2.35 | 130.4 ± 7.57 | 79.6 ± 7.07 | ≥ 100
21 | O=P(O)(O)C(N1CCC2(CCCCC2)CC1)P(=O)(O)O [Example 2, 3-azaspiro[5.5]undecan-3-yl-methylene bisphosphonic acid] | 47.2 ± 2.22 | 109.0 ± 8.47 | 61.8 ± 7.38 | ≥ 100
22 | C=C1CCN(C(P(=O)(O)O)P(=O)(O)O)CC1 [Example 14, 4-methylidenepiperidinomethylene bisphosphonic acid] | 60.99 ± 2.67 | 68.34 ± 2.94 | 7.35 ± 2.65 | ≥ 100
